Laboratory results published in the NIST ThermoML archive (doi:10.1021/je050296u).
± gives the expanded uncertainty stated by the source.

Experiment: mn = molality of the nth substance listed, in mol/kg
Conditions: 298.15 K; 101.33 kPa; Liquid; Calvet calorimetry; m1 = 0.1

apparent molar enthalpy [kcal/mol]	SMILES
3.38 ± 0.0574	NCC(=O)O [2-aminoacetic acid] + O
1.81 ± 0.0359	C[C@H](N)C(=O)O [(S)-2-aminopropanoic acid] + O
2.71 ± 0.0478	N[C@@H](CO)C(=O)O [L-serine] + O
